Test results reported in ChEMBL document CHEMBL1135658, “Structure-activity studies of the melanocortin peptides: discovery of potent and selective affinity antagonists for the hMC3 and hMC4 receptors” (J Med Chem, 2002).
pEC50, pIC50: −log10 of the molar value. Positions of bridges follow the written chain, without caps; N, C: chain ends. Non-standard residues stand in square brackets, D forms with d. Residues, ends and D or L forms follow the SMILES beside them. d2Nal = N[C@H](Cc1ccc2ccccc2c1)C(=O)O

Assays:
[1] = target: T1, Melanocortin receptor 4 (Homo sapiens, UniProt P32245); test: Agonist activity against human Melanocortin-4 receptor; assay type: functional
T1 sequence (P32245 whole entry): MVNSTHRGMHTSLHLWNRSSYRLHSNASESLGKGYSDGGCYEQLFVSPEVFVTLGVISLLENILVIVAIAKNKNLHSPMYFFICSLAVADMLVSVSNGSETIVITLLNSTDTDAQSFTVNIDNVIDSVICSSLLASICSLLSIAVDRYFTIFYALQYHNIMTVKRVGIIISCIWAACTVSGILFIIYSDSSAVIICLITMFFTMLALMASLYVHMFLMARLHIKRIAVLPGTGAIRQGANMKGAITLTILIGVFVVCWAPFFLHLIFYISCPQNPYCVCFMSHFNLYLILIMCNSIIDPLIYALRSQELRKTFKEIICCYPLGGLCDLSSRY

[2] = target: T1, Melanocortin receptor 4; test: Binding affinity against human Melanocortin-4 receptor
[3] = target: Melanocortin receptor 5 (Homo sapiens, UniProt P33032); test: Binding affinity against human Melanocortin 5 receptor
Chain of Melanocortin receptor 5 (P33032 whole entry): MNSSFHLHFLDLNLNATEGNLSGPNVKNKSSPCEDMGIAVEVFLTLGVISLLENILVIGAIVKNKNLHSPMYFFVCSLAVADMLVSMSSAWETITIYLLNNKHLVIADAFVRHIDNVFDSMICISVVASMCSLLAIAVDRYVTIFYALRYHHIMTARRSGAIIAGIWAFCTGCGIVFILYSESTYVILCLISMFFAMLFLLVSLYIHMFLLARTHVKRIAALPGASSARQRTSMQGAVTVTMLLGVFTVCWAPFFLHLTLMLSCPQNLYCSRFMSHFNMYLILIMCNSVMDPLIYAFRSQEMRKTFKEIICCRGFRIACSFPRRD

[4] = target: Melanocortin receptor 3 (Homo sapiens, UniProt P41968); test: Binding affinity for human Melanocortin-3 receptor
Chain of Melanocortin receptor 3 (P41968 whole entry): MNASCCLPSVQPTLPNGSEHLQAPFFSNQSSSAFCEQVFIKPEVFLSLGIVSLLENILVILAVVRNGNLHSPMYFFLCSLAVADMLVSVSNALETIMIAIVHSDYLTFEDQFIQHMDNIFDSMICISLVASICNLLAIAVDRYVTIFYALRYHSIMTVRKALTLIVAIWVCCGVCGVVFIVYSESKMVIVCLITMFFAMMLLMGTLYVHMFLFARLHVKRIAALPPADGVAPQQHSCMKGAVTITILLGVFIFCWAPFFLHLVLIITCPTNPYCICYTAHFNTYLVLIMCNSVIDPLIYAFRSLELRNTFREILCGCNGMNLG

Row | SMILES | Activity [1] | pIC50 [2] | pIC50 [3] | pIC50 [4] | pEC50 [3]
1 | CC(=O)[C@@H]1CSSC[C@@H](C(=O)N2CCC[C@H]2C(=O)CN2CCC[C@H]2C(=O)CN[C@@H](CCCCN)C(=O)CN[C@@H](CC(=O)O)C(N)=O)NC(=O)CNC(=O)[C@@H](Cc2c[nH]c3ccccc23)NC(=O)[C@H](CCCN=C(N)N)NC(=O)[C@H](Cc2ccc3ccccc3c2)NC(=O)[C@H](Cc2c[nH]cn2)NC(=O)[C@@H](CCC(=O)O)NC1=O | 0% | – | – | – | –
2 | CC(=O)N[C@H]1CSSC[C@@H](C(=O)N2CCC[C@H]2C(=O)N2CCC[C@H]2C(=O)N[C@@H](CCCCN)C(=O)N[C@@H](CC(=O)O)C(N)=O)NC(=O)CNC(=O)[C@H](Cc2c[nH]c3ccccc23)NC(=O)[C@H](CCCNC(=N)N)NC(=O)[C@@H](Cc2ccc3ccccc3c2)NC(=O)[C@H](Cc2c[nH]cn2)NC(=O)[C@H](CCC(=O)O)NC1=O (Ac-CEH[d2Nal]RWGCPPKD-NH2; disulfide 1-8) | – | 8.82 | 7.80 | 7.60 | –
3 | N=C(N)NCCC[C@@H]1NC(=O)[C@@H](Cc2cccc3ccccc23)NC(=O)CCC(=O)NCCCC[C@@H](C(N)=O)NC(=O)[C@H](Cc2c[nH]c3ccccc23)NC1=O | – | 9.30 | 6.27 | 6.82 | 6.28
